melting point	Compound
132.2 to 134.7 °C	CCCCC1(C(C)(F)F)c2cc(C#N)ccc2Nc2c1cc[nH]c2=O (centres unmarked) [Example 67, 7-Cyano-5-(n-butyl)-5-(1,1-difluoroethyl)-5,10-dihydrobenzo[b]-1,7-naphthyridin-1(2H)-one]
247 to 250 °C	O=c1[nH]ccc2c1Nc1ccc(Cl)cc1C2(C#CC1CC1)C(F)(F)F (centres unmarked) [Example 21, 7-Chloro-5-cyclopropylethynyl-5-trifluoromethyl-5,10-dihydrobenzo[b]-1,7-naphthyridin-1(2H)-one]
242 to 245 °C	O=c1[nH]ccc2c1Nc1ccc(Cl)cc1C2(CNC1CC1)C(F)(F)F (centres unmarked) [Example 32, 7-Chloro-5-(cyclopropylaminomethyl)-5-trifluoromethyl-5,10-dihydrobenzo[b]-1,7-naphthyridin-1(2H)-one]
185 to 190 °C	CC(C)OCC1(C(F)(F)F)c2cc(Cl)ccc2Nc2c1cc[nH]c2=O (centres unmarked) [Example 28, 7-Chloro-5-(i-propoxymethyl)-5-trifluoromethyl-5,10-dihydrobenzo[b]-1,7-naphthyridin-1(2H)-one]
162 to 165 °C	CCCOCC1(C(F)(F)F)c2cc(Cl)ccc2Nc2c1cc[nH]c2=O (centres unmarked) [Example 27, 7-Chloro-5-(n-propoxymethyl)-5-trifluoromethyl-5,10-dihydrobenzo[b]-1,7-naphthyridin-1(2H)-one]
120 to 122 °C	CCCCC1(C(C)(F)F)c2cc(Cl)ccc2Nc2c1cc[nH]c2=O (centres unmarked) [Example 65, 7-Chloro-5-(n-butyl)-5-(1,1-difluoroethyl)-5,10-dihydrobenzo[b]-1,7-naphthyridin-1(2H)-one]
138 to 142 °C	CC(C)OCC1(C(F)F)c2cc(Cl)ccc2Nc2c1cc[nH]c2=O (centres unmarked) [Example 64b, 7-Chloro-5-(i-propoxymethyl)-5-difluoromethyl-5,10-dihydrobenzo[b]-1,7-naphthyridin-1(2H)-one]
270 to 275 °C	O=c1[nH]ccc2c1Nc1ccc(Cl)cc1C2(Cc1ccccn1)C(F)(F)F (centres unmarked) [Example 19, 7-Chloro-5-(2-pyridylmethyl)-5-trifluoromethyl-5,10-dihydrobenzo[b]-1,7-naphthyridin-1(2H)-one]
230 to 235 °C	O=c1[nH]ccc2c1Nc1ccc(Cl)cc1C2(CNC1CC1)C(F)(F)F (centres unmarked) [Example 22, 7-Chloro-5-(N-cyclopropylaminomethyl)-5-trifluoromethyl-5,10-dihydrobenzo[b]-1,7-naphthyridin-1(2H)-one]
220 to 221 °C	CC(C)SCC1(C(F)(F)F)c2cc(Cl)ccc2Nc2c1cc[nH]c2=O (centres unmarked) [Example 44, 7-Chloro-5-(i-propylsulfanylmethyl)-5-trifluoromethyl-5,10-dihydrobenzo[b]-1,7-naphthyridin-1(2H)-one]
243 to 245 °C	CCCNCC1(C(F)(F)F)c2cc(Cl)ccc2Nc2c1cc[nH]c2=O (centres unmarked) [Example 33, 7-Chloro-5-(n-propylaminomethyl)-5-trifluoromethyl-5,10-dihydrobenzo[b]-1,7-naphthyridin-1(2H)-one]
268 to 271 °C	COCCC1(C(F)(F)F)c2cc(Cl)ccc2Nc2c1cc[nH]c2=O (centres unmarked) [Example 29, 7-Chloro-5-(2-methoxyethyl)-5-trifluoromethyl-5,10-dihydrobenzo[b]-1,7-naphthyridin-1(2H)-one]
245 to 248 °C	CCCCC1(C(F)(F)F)c2cc(Cl)ccc2Nc2c1cc[nH]c2=O (centres unmarked) [Example 18, 5-Butyl-7-chloro-5-trifluoromethyl-5,10-dihydrobenzo[b]-1,7-naphthyridin-1(2H)-one]

More lines, now with the values behind:

Compound	melting point
CCCCC1(C(F)F)c2cc(Cl)ccc2Nc2c1cc[nH]c2=O (centres unmarked) [Example 64a, 7-Chloro-5-(n-butyl)-5-difluoromethyl-5,10-dihydrobenzo[b]-1,7-naphthyridin-1(2H)-one]	198 to 200 °C
CCOCC1(C(C)(F)F)c2cc(Cl)ccc2Nc2c1cc[nH]c2=O (centres unmarked) [Example 68, 7-Chloro-5-(ethoxymethyl)-5-(1,1-difluoroethyl)-5,10-dihydrobenzo[b]-1,7-naphthyridin-1(2H)-one]	265 to 267 °C
CC(C)CNCC1(C(F)(F)F)c2cc(Cl)ccc2Nc2c1cc[nH]c2=O (centres unmarked) [Example 35, 7-Chloro-5-(i-butylaminomethyl)-5-trifluoromethyl-5,10-dihydrobenzo[b]-1,7-naphthyridin-1(2H)-one]	210 to 215 °C
CC(C)SCC1(C(F)(F)F)c2cc(F)ccc2Nc2c1cc[nH]c2=O (centres unmarked) [Example 45, 7-Fluoro-5-(i-propylsulfanylmethyl)-5-trifluoromethyl-5,10-dihydrobenzo[b]-1,7-naphthyridin-1(2H)-one]	215 to 216 °C
O=c1[nH]ccc2c1Nc1ccc(Cl)cc1C2(CO)C(F)(F)F (centres unmarked) [Example 23, 7-Chloro-5-hydroxymethyl-5-trifluoromethyl-5,10-dihydrobenzo[b]-1,7-naphthyridin-1(2H)-one]	270 to 275 °C
CC(C)(C)SCC1(C(F)(F)F)c2cc(Cl)ccc2Nc2c1cc[nH]c2=O (centres unmarked) [Example 46, 7-Chloro-5-(t-butylsulfanylmethyl)-5-trifluoromethyl-5,10-dihydrobenzo[b]-1,7-naphthyridin-1(2H)-one]	247 to 249 °C
CC(C)N(C)CC1(C(F)(F)F)c2cc(Cl)ccc2Nc2c1cc[nH]c2=O (centres unmarked) [Example 31, 7-Chloro-5-(N-methyl-N-i-propylaminomethyl)-5-trifluoromethyl-5,10-dihydrobenzo[b]-1,7-naphthyridin-1(2H)-one]	105 to 110 °C
CCCCC1(C)c2cc(Cl)ccc2Nc2c1cc[nH]c2=O (centres unmarked) [Example 61a, 7-Chloro-5-(n-butyl)-5-methyl-5,10-dihydrobenzo[b]-1,7-naphthyridin-1(2H)-one]	177 to 179 °C
CC(C)NCC1(C(F)(F)F)c2cc(Cl)ccc2Nc2c1cc[nH]c2=O (centres unmarked) [Example 30, 7-Chloro-5-(i-propylaminomethyl)-5-trifluoromethyl-5,10-dihydrobenzo[b]-1,7-naphthyridin-1(2H)-one]	235 to 240 °C
CCCCC1(CO)c2cc(Cl)ccc2Nc2c1cc[nH]c2=O (centres unmarked) [Example 64, 7-Chloro-5-(n-butyl)-5-(hydroxymethyl)-5,10-dihydrobenzo[b]-1,7-naphthyridin-1(2H)-one]	260 to 265 °C
CCCCC1(C(C)(F)F)c2cc(F)ccc2Nc2c1cc[nH]c2=O (centres unmarked) [Example 66, 5-(n-Butyl)-5-(1,1-difluoroethyl)-7-Fluoro-5,10-dihydrobenzo[b]-1,7-naphthyridin-1(2H)-one]	267 to 270 °C
O=c1[nH]ccc2c1Nc1ccc(Cl)cc1C2(CNC1CCC1)C(F)(F)F (centres unmarked) [Example 34, 7-Chloro-5-(cyclobutylaminomethyl)-5-trifluoromethyl-5,10-dihydrobenzo[b]-1,7-naphthyridin-1(2H)-one]	250 to 254 °C
CCCCC1(C#N)c2cc(Cl)ccc2Nc2c1cc[nH]c2=O (centres unmarked) [Example 63, 7-Chloro-5-(n-butyl)-5-cyano-5,10-dihydrobenzo[b]-1,7-naphthyridin-1(2H)-one]	182 to 185 °C
O=c1[nH]ccc2c1Nc1ccc(Cl)cc1C2(CCC1CC1)C(F)(F)F (centres unmarked) [Example 20, 7-Chloro-5-(2-cyclopropylethyl)-5-trifluoromethyl-5,10-dihydrobenzo[b]-1,7-naphthyridin-1(2H)-one]	220 to 222 °C
CCOCCC1(C(F)(F)F)c2cc(Cl)ccc2Nc2c1cc[nH]c2=O (centres unmarked) [Example 62, 7-Chloro-5-(ethoxyethyl)-5-trifluoromethyl-5,10-dihydrobenzo[b]-1,7-naphthyridin-1(2H)-one]	240 to 245 °C
CC(C)OCC1(C(F)(F)F)c2cc(Cl)ccc2Nc2c1cc[nH]c2=O (centres unmarked) [Example 36, 7-Chloro-5-(i-propoxymethyl)-5-trifluoromethyl-5,10-dihydrobenzo[b]-1,7-naphthyridin-1(2H)-one]	195 to 197 °C
